For experiment [1], the target named is T1, off-target kinases (Homo sapiens, UniProt O14936).
T1 sequence (O14936 1-926): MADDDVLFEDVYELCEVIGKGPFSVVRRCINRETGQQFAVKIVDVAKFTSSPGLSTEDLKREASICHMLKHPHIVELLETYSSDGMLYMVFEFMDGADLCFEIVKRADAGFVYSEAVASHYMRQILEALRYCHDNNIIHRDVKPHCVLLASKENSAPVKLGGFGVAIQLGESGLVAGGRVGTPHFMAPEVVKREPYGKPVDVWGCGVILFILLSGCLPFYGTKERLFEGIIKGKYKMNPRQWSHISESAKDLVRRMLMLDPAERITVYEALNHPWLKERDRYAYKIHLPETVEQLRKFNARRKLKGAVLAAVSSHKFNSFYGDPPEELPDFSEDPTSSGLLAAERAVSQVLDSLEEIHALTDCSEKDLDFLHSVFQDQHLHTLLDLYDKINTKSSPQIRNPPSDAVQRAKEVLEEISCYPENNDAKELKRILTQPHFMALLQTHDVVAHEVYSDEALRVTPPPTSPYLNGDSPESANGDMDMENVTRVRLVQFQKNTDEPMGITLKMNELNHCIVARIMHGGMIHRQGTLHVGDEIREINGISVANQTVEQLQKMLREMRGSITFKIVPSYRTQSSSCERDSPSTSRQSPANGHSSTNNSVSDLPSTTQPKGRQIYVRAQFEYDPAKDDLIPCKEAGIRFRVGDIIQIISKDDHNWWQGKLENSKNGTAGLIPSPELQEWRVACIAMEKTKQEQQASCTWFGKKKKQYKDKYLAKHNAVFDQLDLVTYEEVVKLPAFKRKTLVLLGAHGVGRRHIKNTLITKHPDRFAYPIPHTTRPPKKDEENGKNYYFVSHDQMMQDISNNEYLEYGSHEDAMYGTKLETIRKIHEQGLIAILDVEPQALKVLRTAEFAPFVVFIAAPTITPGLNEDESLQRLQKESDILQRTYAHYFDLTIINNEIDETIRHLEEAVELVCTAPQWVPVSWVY
Put plainly: SelectScreen Kinase Profiling, single point inhibition and IC50 for off-target kinases. Format: biochemical. Particulars: CASK, LanthaScreen Binding.

The target of experiment [2] is T2, off-target kinases (Homo sapiens, UniProt Q8TDC3).
T2 sequence (Q8TDC3 1-778): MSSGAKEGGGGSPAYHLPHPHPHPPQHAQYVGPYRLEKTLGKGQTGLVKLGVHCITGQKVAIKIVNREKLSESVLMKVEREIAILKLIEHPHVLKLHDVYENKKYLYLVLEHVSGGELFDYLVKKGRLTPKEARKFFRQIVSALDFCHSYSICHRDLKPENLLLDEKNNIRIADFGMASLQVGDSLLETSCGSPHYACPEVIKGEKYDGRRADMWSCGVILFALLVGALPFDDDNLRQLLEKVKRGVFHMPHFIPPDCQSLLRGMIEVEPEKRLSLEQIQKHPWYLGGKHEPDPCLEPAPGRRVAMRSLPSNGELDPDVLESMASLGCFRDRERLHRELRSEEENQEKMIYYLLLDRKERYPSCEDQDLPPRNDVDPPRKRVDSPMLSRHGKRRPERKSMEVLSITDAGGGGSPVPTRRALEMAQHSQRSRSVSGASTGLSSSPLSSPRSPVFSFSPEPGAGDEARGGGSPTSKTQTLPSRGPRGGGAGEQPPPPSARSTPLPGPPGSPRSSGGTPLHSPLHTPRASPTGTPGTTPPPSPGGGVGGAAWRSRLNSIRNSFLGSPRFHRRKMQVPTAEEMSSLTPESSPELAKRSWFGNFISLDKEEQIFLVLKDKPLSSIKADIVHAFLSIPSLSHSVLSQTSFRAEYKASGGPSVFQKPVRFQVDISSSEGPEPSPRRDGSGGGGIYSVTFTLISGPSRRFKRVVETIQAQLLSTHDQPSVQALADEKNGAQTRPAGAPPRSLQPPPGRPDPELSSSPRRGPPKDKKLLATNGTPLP
The description is as above. Format: biochemical. Particulars: BRSK1 (SAD1), ATP Km app, ZLYTE.

SMILES strings stand for the structures. Like-named read-outs stand apart in the source and are kept apart here.

By inhibition is commonly meant the percentage by which the read-out fell short of the control. As to `N#Cc1cc(-c2ncnc(Nc3ccc(N4CCN(C5COC5)CC4)cc3)n2)ccc1OC1CCOCC1` [Compound 1, 5-(4-((4-(4-(oxetan-3-yl)piperazin-1-yl)phenyl)amino)-1,3,5-triazin-2-yl)-2-((tetrahydro-2H-pyran-4-yl)oxy)benzonitrile], the inhibition was 6% in experiment [1] (read-out: % Inhibition 1); 10% in experiment [1] (read-out: % Inhibition 2); 8% in experiment [1] (read-out: % Inhibition Avg); 92% in experiment [2] (read-out: % Inhibition 1); 89% in experiment [2] (read-out: % Inhibition 2); 90% in experiment [2] (read-out: % Inhibition Avg).

For the origin of these results see patent publication US11572590B2, “Methods for evaluating tumor cell spheroids using 3D microfluidic cell culture device” (Dana-Farber Cancer Institute, Inc., priority 2017, dated 2023).
